Where two headings read alike, the source gives them in different places.
What was measured:
Type in all cases: in vivo
[1] = system: sedge, umbrella (small-flower umbrella sedge, Cyperus difformis); experiment: Test B flooded paddy test; conditions: Cyperus difformis, 250 g ai/ha, Flood; 0 to 100 scale where 0 is no effect and 100 is complete control; read-out: Sedge, Umbrella plant response rating
How it was run: (§1)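 Visual ratings (0 none to 100 complete control) are relative to untreated plants, taken 13–15 d after treatment in a greenhouse. Test material went straight into floodwater standing 3 cm above the soil, kept constant, on plants at the 2-leaf stage.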

[2] = system: barnyardgrass (Echinochloa crus-galli); experiment: Test B flooded paddy test; conditions: Echinochloa crus-galli, 250 g ai/ha, Flood; 0 to 100 scale where 0 is no effect and 100 is complete control; read-out: Barnyardgrass plant response rating
How it was run: as §1

[3] = system: ducksalad (Heteranthera limosa); experiment: Test B flooded paddy test; conditions: Heteranthera limosa, 250 g ai/ha, Flood; 0 to 100 scale where 0 is no effect and 100 is complete control; read-out: Ducksalad plant response rating
How it was run: as §1

rice (Oryra sativa) = experiment: Test B flooded paddy test; conditions: Oryza sativa, 250 g ai/ha, Flood; 0 to 100 scale where 0 is no effect and 100 is complete control; read-out: Rice plant response rating
How it was run: as §1

[4] = system: pigweed (Amaranthus retroflexus); experiment: Test A postemergence; conditions: Amaranthus retroflexus, post-emergence, 240 h, postemergence, approx. 10 d; for pest or weed control at 125 g/ha: 125 g ai/ha, visual injury on 0 to 100 scale (0 no effect, 100 complete control), read-out: Pigweed plant response rating
How it was run: (§2)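 Visual injury, scored on a 0–100 scale relative to untreated controls, was recorded about 10 d after application. Treatments were a preemergence soil spray over planted seeds or a postemergence spray on plants at the one- to two-leaf stage, 2 to 10 cm tall, all in loam soil–sand blend in the greenhouse.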

[5] = system: ryegrass, Italian (Italian ryegrass, Lolium multiflorum); experiment: Test A postemergence; conditions: Lolium multiflorum, post-emergence, 240 h, postemergence, approx. 10 d; for pest or weed control at 125 g/ha: 125 g ai/ha, visual injury on 0 to 100 scale (0 no effect, 100 complete control), read-out: Ryegrass, Italian plant response rating
How it was run: as §2

[6] = system: blackgrass (Alopecurus myosuroides); experiment: Test A postemergence; conditions: Alopecurus myosuroides, post-emergence, 240 h; for pest or weed control at 125 g/ha: 125 g ai/ha; for pest or weed control at 500 g/ha: 500 g ai/ha, visual injury, 0 to 100 scale (0 no effect, 100 complete control)
How it was run: as §2

[7] = system: ragweed (common ragweed, Ambrosia elatior); experiment: Test A postemergence; conditions: Ambrosia artemisiifolia, post-emergence, 240 h, postemergence, approx. 10 d; for pest or weed control at 125 g/ha: 125 g ai/ha, visual injury on 0 to 100 scale (0 no effect, 100 complete control), read-out: Ragweed plant response rating
How it was run: as §2

corn (Zea mays) = experiment: Test A postemergence; conditions: Zea mays, post-emergence, 240 h; for Corn plant response rating (crop injury, 0 = no effect, 100 = complete kill) at 500 g/ha: 500 g ai/ha, visual injury, 0 to 100 scale (0 no effect, 100 complete control)
How it was run: as §2

[8] = system: pigweed (Amaranthus retroflexus); experiment: Test A preemergence; conditions: Amaranthus retroflexus, pre-emergence, 240 h; for pest or weed control at 125 g/ha: 125 g ai/ha, Preemergence, visual injury rating after approximately 10 d, read-out: Pigweed plant response rating (0 to 100 scale, 0 is no effect, 100 is complete control); for pest or weed control at 500 g/ha: 500 g ai/ha, preemergence, visual injury rating about 10 d after treatment, 0 to 100 scale (0 no effect, 100 complete control), read-out: Pigweed plant response rating
[9] = system: ryegrass, Italian (Italian ryegrass, Lolium multiflorum); experiment: Test A preemergence; conditions: Lolium multiflorum, pre-emergence, 240 h; for pest or weed control at 125 g/ha: 125 g ai/ha, Preemergence, visual injury rating after approximately 10 d, read-out: Ryegrass, Italian plant response rating (0 to 100 scale, 0 is no effect, 100 is complete control); for pest or weed control at 500 g/ha: 500 g ai/ha, preemergence, visual injury rating about 10 d after treatment, 0 to 100 scale (0 no effect, 100 complete control), read-out: Ryegrass, Italian plant response rating
How it was run: as §2

[10] = system: ragweed (common ragweed, Ambrosia elatior); experiment: Test A preemergence; conditions: Ambrosia artemisiifolia, pre-emergence, 240 h; for pest or weed control at 125 g/ha: 125 g ai/ha, Preemergence, visual injury rating after approximately 10 d, read-out: Ragweed plant response rating (0 to 100 scale, 0 is no effect, 100 is complete control); for pest or weed control at 500 g/ha: 500 g ai/ha, preemergence, visual injury rating about 10 d after treatment, 0 to 100 scale (0 no effect, 100 complete control), read-out: Ragweed plant response rating
How it was run: as §2

[11] = system: giant foxtail (Setaria faberii); experiment: Test A preemergence; conditions: Setaria faberi, pre-emergence, 240 h; for pest or weed control at 125 g/ha: 125 g ai/ha, Preemergence, visual injury rating after approximately 10 d, read-out: Foxtail, Giant plant response rating (0 to 100 scale, 0 is no effect, 100 is complete control); for pest or weed control at 500 g/ha: 500 g ai/ha, preemergence, visual injury rating about 10 d after treatment, 0 to 100 scale (0 no effect, 100 complete control), read-out: Foxtail, Giant plant response rating
How it was run: as §2

[12] = system: barnyardgrass (Echinochloa crus-galli); experiment: Test A preemergence; conditions: Echinochloa crus-galli, pre-emergence, 240 h; for pest or weed control at 125 g/ha: 125 g ai/ha, Preemergence, visual injury rating after approximately 10 d, read-out: Barnyardgrass plant response rating (0 to 100 scale, 0 is no effect, 100 is complete control); for pest or weed control at 500 g/ha: 500 g ai/ha, preemergence, visual injury rating about 10 d after treatment, 0 to 100 scale (0 no effect, 100 complete control), read-out: Barnyardgrass plant response rating
How it was run: as §2

Kochia (Kochia scoparia) = experiment: Test A preemergence; conditions: Bassia scoparia, pre-emergence, 240 h; for pest or weed control at 125 g/ha: 125 g ai/ha, Preemergence, visual injury rating after approximately 10 d, read-out: Kochia plant response rating (0 to 100 scale, 0 is no effect, 100 is complete control); for pest or weed control at 500 g/ha: 500 g ai/ha, preemergence, visual injury rating about 10 d after treatment, 0 to 100 scale (0 no effect, 100 complete control), read-out: Kochia plant response rating
How it was run: as §2

[13] = postemergence, approx. 10 d, read-out: Plant response rating, Blackgrass

Row | SMILES | pest or weed control at 250 g/ha [1] [%] | pest or weed control at 250 g/ha [2] [%] | pest or weed control at 250 g/ha [3] [%] | pest or weed control at 250 g/ha (rice (Oryra sativa)) [%] | pest or weed control at 125 g/ha [4] [%] | pest or weed control at 125 g/ha [5] [%] | pest or weed control at 500 g/ha [6, 13] [%] | pest or weed control at 125 g/ha [7] [%] | Corn plant response rating (crop injury, 0 = no effect, 100 = complete kill) at 500 g/ha (corn (Zea mays); postemergence, approx. 10 d) [%] | pest or weed control at 125 g/ha [8] [%] | pest or weed control at 500 g/ha [8] [%] | pest or weed control at 125 g/ha [9] [%] | pest or weed control at 500 g/ha [9] [%] | pest or weed control at 125 g/ha [10] [%] | pest or weed control at 500 g/ha [10] [%] | pest or weed control at 125 g/ha [11] [%] | pest or weed control at 500 g/ha [11] [%] | pest or weed control at 125 g/ha [12] [%] | pest or weed control at 500 g/ha [12] [%] | pest or weed control at 125 g/ha (Kochia (Kochia scoparia)) [%] | further results
1 | O=C(Nc1ccccc1F)[C@H]1C(=S)NC[C@@H]1c1ccc(C(F)(F)F)cc1 (racemic) [Compound 1047] | 0 | 0 | 0 | 0 | 0 | 0 | 0 | 0 | 0 | 0 | 20 | 0 | 0 | 40 | 60 | 60 | 80 | 30 | 80 | 60 | pest or weed control at 125 g/ha ([6]; postemergence, visual injury on 0 to 100 scale (0 no effect, 100 complete control), approx. 10 d, read-out: Blackgrass plant response rating): 0%; plant injury at 125 g/ha (corn (Zea mays); 125 g ai/ha, postemergence, visual injury on 0 to 100 scale (0 no effect, 100 complete control), approx. 10 d, read-out: Corn plant response rating): 0%; pest or weed control at 500 g/ha (Kochia (Kochia scoparia)): 80%
2 | Cc1ccc([C@H]2CNC(=O)[C@@H]2C(=O)Nc2ccccc2S(C)(=O)=O)cc1C [Compound 1037] | 0 | 25 | 100 | 0 | 0 | 0 | 20 | 20 | 30 | 0 | 20 | 50 | 70 | 0 | 60 | 20 | 80 | 80 | 90 | 40 | pest or weed control at 500 g/ha ([4]; 500 g ai/ha, visual injury, 0 to 100 scale (0 no effect, 100 complete control), read-out: Plant response rating, Pigweed): 0%; pest or weed control at 500 g/ha ([5]; 500 g ai/ha, visual injury, 0 to 100 scale (0 no effect, 100 complete control), read-out: Plant response rating, Ryegrass, Italian): 50%; pest or weed control at 125 g/ha ([6]; Postemergence, visual injury after approximately 10 d, 0 to 100 scale where 0 is no effect and 100 is complete control, read-out: Plant response rating, Blackgrass): 0%; pest or weed control at 500 g/ha ([7]; 500 g ai/ha, visual injury, 0 to 100 scale (0 no effect, 100 complete control), read-out: Plant response rating, Ragweed): 30%; Corn plant response rating (crop injury, 0 = no effect, 100 = complete kill) at 125 g/ha (corn (Zea mays); 125 g ai/ha, Postemergence, visual injury after approximately 10 d, 0 to 100 scale where 0 is no effect and 100 is complete control): 0%; pest or weed control at 500 g/ha (Kochia (Kochia scoparia)): 90%
